The values that follow are results of earlier work, collected in patent US5977116A, “Piperazine, piperidine and tetrahydropyridine derivatives” (Merck Sharp & Dohme Ltd., priority 1995, dated 1999).

For this data set, the system named is human 5-HT1Dα and 5-HT1Dβ receptor subtypes. To be noted: cf. WO-A-91/17174, Table 1.

For the molecule `CNS(=O)(=O)Cc1ccc2[nH]cc(CCN(C)C)c2c1` [sumatriptan], the “discrimination between human 5-HT1Dα and 5-HT1Dβ receptor subtypes” value is given as “barely discriminates”.
